Measured values taken from patent publication US20250154193A1, “STEROID COMPOUND, AND PREPARATION METHOD THEREFOR AND APPLICATION THEREOF” (CHOLESGEN (SHANGHAI) CO., LTD., priority 2022, published 2025).

System: Ldlr−/− mice
Experiment: AMLN diet-induced fatty liver model: body weight, serum and liver metabolic parameters
Type: in vivo
Details: 30 mg/kg/day intragastrically, 8 weeks
Source text: Animals: Adult male C57BL/6J mice were purchased from Shanghai SLAC, and low-density lipoprotein receptor knockout mice (Ldlr^−/− mice, T001464) were purchased from Jiangsu GemPharmatech Co., Ltd. Mice were housed in an environment free of pathogens, maintained in a 12-hour light/dark cycle, and had free access to water and feed. The vehicle for oral gavage was 0.5% Tween-80, 0.5% methylcellulose, and 0.9% sodium chloride. AMLN feed (AMLN, Dyets) contains 40% (kcal %) fat (80% of which is trans fat), 22% (mass %) fructose, and 2% (mass %) cholesterol.
After drug treatment, mice were fasted for 4 hours before being euthanized, and blood and liver samples were collected. Blood was coagulated and centrifuged at 1,500 g for 10 minutes at 4° C. to obtain the supernatant (i.e., serum). Lipids from liver were extracted using the chloroform/methanol method. The samples were first homogenized and crushed using a Precelly 24 homogenizer, and centrifuged at 16,000 g for 10 minutes at 4° C. The organic phase was transferred to a new tube, dried with nitrogen, and dissolved in ethanol. Total cholesterol and triglyceride levels in blood and liver were measured by cholesterol and triglyceride kits (Shanghai Kehua Bio-Engineering Co., Ltd.), respectively. ALT (LE-M0477, Lai Er Bio-Tech) and AST (LE-M0568, Lai Er Bio-Tech) levels in serum were measured according to the corresponding manufacturer's manuals, using an analytical system from Sysmex Shanghai Ltd.
Male C57BL/6J mice and male Ldlr^−/− mice (TOO1464, Jiangsu GemPharmatech Co., Ltd.) at 8 weeks of age were purchased, grouped, fed with different diets, and treated with different drugs. The mice were randomly divided into 4 groups with 8 to 9 mice in each group: One group consisted of C57BL/6J wild-type mice, which was the chow diet (CD) vehicle control group. The other three groups consisted of Ldlr^−/− knockout mice, including chow diet (CD) vehicle control group, AMLN diet (containing […], 22% fructose, and 2% cholesterol) vehicle control group, and AMLN diet combined with 25-hydroxylanosterol administration group (25-hydroxylano sterol was administered at a concentration of 30 mg/kg/day). The mice in four groups were intragastrically administered once a day, during which the changes in food intake and body weight of the mice in different treatment groups were counted. After 8 weeks, blood and liver samples were collected from the mice to analyze blood lipids, liver lipids, and liver damage phenotypes.
In FIGS. 1 and 2, P values were calculated using the statistical analysis of two-way ANOVA (Dunnett's multiple comparisons test); * indicates P<0.05; ns indicates no statistical difference. In FIGS. 3 to 8, data are represented as mean±standard deviation. P values were calculated using one-way ANOVA; * indicates P<0.05; ** indicates P<0.01; *** indicates P<0.001.

Question: For `C[C@H](CCCC(C)(C)O)[C@H]1CC[C@@]2(C)C3=C(CC[C@]12C)[C@@]1(C)CC[C@H](O)C(C)(C)[C@@H]1CC3` [compound 68, (1R,3aR,5aR,7S,9aS,11aR)-1-[(2R)-6-hydroxy-6-methylheptan-2-yl]-3a,6,6,9a,11a-pentamethyl-2,3,3a,4,5,5a,6,7,8,9,9a,10,11,11a-tetradecahydro-1H-cyclopenta[1,2-a]phenanthren-7-ol], which “alanine aminotransferase (ALT) in serum” value is on record?
Answer: significantly reduced

Question: And the “aspartate aminotransferase (AST) in serum” value?
Answer: significantly reduced

Question: What about the “total liver cholesterol levels” value of the same molecule?
Answer: significantly reduced

Question: What about the “total liver triglyceride levels” value of the same molecule?
Answer: significantly reduced

Question: And the “AMLN diet-induced weight gain” value (vs AMLN diet vehicle control)?
Answer: significantly lower

Question: What about the “total cholesterol levels in serum” value (vs control group) of the same molecule?
Answer: significantly reduced

Question: And the “total triglyceride levels in serum” value (vs control group)?
Answer: significantly reduced
